18 compounds from PubChem BioAssay (NCI) can be followed below.

Test systems include OVCAR-5 ovarian; OVCAR-4 ovarian; HCC-2998 colon; HT29 colon; K-562 leukemia; HOP-62 NSCLC; IGROV1 ovarian; SNB-75 CNS; LOX IMVI melanoma; SF-268 CNS; SR leukemia.
What all share (assay): NCI tumour cell line growth inhibition, 48 h

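Compound exposure: 48 hours, 5 concentrations, 96-well plates. The concentration for 50% growth inhibition is given as GI50. TGI: total growth inhibition.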 Where a SMILES comes first, the peptide text is derived from it. [ ]: non-standard residue; d: D form. ξ: configuration not given here. ξLac(3-iPr) = CC(C)CC(O)C(=O)O; NMeV = CN[CH](C(=O)O)C(C)C; NMeA = CN[CH](C)C(=O)O; βAla = NCCC(=O)O

On to `CC(NC(=O)c1ccc(NP(=O)(OCc2ccc([N+](=O)[O-])o2)N(C)CCCCCl)cc1)c1ccc(OCC2CCCCC2)c(C(N)=O)c1` (configuration not stated), for which the TGI in the experiment on OVCAR-5 ovarian came to 73.7 µM; in the experiment on OVCAR-4 ovarian, 49.6 µM; in the experiment on HCC-2998 colon, 24.2 µM; in the experiment on HT29 colon, 44.4 µM; in the experiment on K-562 leukemia, 83.2 µM; with HOP-62 NSCLC it was 43.4 µM. Moreover, the TGI in the experiment with IGROV1 ovarian was 45.9 µM; with SNB-75 CNS it was 31.7 µM; in the experiment on LOX IMVI melanoma, 27 µM; in the experiment with SF-268 CNS, 36.1 µM; in the experiment on SR leukemia, 40.7 µM.

With `CO/N=C\c1cc(O)c(O)c(/C=N/OC)c1`, the TGI with OVCAR-5 ovarian, with OVCAR-4 ovarian, in the experiment with HCC-2998 colon, with HT29 colon, in the experiment with K-562 leukemia and in the experiment on HOP-62 NSCLC was more than 100 µM in each case. In addition, the TGI with IGROV1 ovarian, with SNB-75 CNS, in the experiment with LOX IMVI melanoma, with SF-268 CNS and in the experiment with SR leukemia was more than 100 µM throughout.

With `CCC(C)C1NC(=O)C2CCCN2C(=O)C(CC(C)C)OC(=O)CCNC(=O)C(C)N(C)C(=O)C(C(C)C)N(C)C1=O` (configuration not stated) (cyclo([ξLac(3-iPr)]PI[NMeV][NMeA][βAla]); configuration not given here), the TGI with OVCAR-5 ovarian was more than 100 µM; in the experiment with OVCAR-4 ovarian it was more than 100 µM; with HCC-2998 colon it was 14.9 µM; in the experiment with HT29 colon, 43.7 µM; with K-562 leukemia it was more than 100 µM; in the experiment on HOP-62 NSCLC it was 17.7 µM. Moreover, the TGI was more than 100 µM in the experiment with IGROV1 ovarian, more than 86.8 µM in the experiment with SNB-75 CNS, 80.9 µM in the experiment on SF-268 CNS and more than 56.5 µM in the experiment with SR leukemia.

On to `O=C1c2ccccc2C(=O)c2c(Nc3cc4c5c(ccc6c7ccc8c9c(cc(Nc%10cccc%11c%10C(=O)c%10ccccc%10C%11=O)c(c3c56)c97)-c3ccccc3C8=O)C(=O)c3ccccc3-4)cccc21`, for which the TGI was more than 100 µM in the experiment on OVCAR-5 ovarian; more than 100 µM in the experiment on OVCAR-4 ovarian; more than 100 µM in the experiment on HT29 colon; more than 100 µM in the experiment on K-562 leukemia; 44.6 µM with HOP-62 NSCLC; more than 100 µM with IGROV1 ovarian. In addition, the TGI with SNB-75 CNS is 41.5 µM; in the experiment on LOX IMVI melanoma, more than 100 µM; in the experiment with SF-268 CNS, 75.2 µM; with SR leukemia, more than 100 µM.

For the compound `Cc1ccc(C2COc3cc(O)c(O)cc3C2)cc1` (configuration not stated), the TGI in the experiment on OVCAR-5 ovarian worked out at 244 µM; in the experiment on OVCAR-4 ovarian it was 62 µM; with HCC-2998 colon it was 172 µM; with HT29 colon, 149 µM; in the experiment on K-562 leukemia, 42.8 µM; in the experiment with HOP-62 NSCLC, 266 µM. Also, the TGI with IGROV1 ovarian stood at 38.5 µM; with SNB-75 CNS, 126 µM; in the experiment on SF-268 CNS, 49.3 µM.

As for `O=C(c1ccccc1)c1nc2ccc(Cl)cc2c2c1CCCO2`, the TGI in the experiment with OVCAR-5 ovarian, with OVCAR-4 ovarian, in the experiment on HCC-2998 colon, with HT29 colon, with K-562 leukemia and in the experiment on HOP-62 NSCLC was more than 100 µM in each case. For the same compound, the TGI with IGROV1 ovarian, in the experiment on LOX IMVI melanoma, in the experiment with SF-268 CNS and with SR leukemia was more than 100 µM in each case.

`O=C1C=CC(=O)c2c(O)c(Br)c(Br)c(O)c21`: the TGI in the experiment with OVCAR-5 ovarian stood at 30.8 µM; in the experiment with OVCAR-4 ovarian, 9.08 µM; in the experiment with HCC-2998 colon, 35.2 µM; in the experiment on HT29 colon, 9.89 µM; with K-562 leukemia, 1.75 µM; with HOP-62 NSCLC, 24.8 µM. In addition, the TGI came to 29.7 µM in the experiment on IGROV1 ovarian, 38.4 µM in the experiment with SNB-75 CNS, 38.3 µM in the experiment with SF-268 CNS and 0.289 µM with SR leukemia.

Take `COc1cc(C(=O)CC2OC(=O)C(Cl)=C2Cl)ccc1Cl` (configuration not stated): the TGI in the experiment on OVCAR-5 ovarian, in the experiment on OVCAR-4 ovarian, in the experiment on HCC-2998 colon, in the experiment with HT29 colon, in the experiment with K-562 leukemia and in the experiment with HOP-62 NSCLC was more than 100 µM throughout. Also, the TGI with IGROV1 ovarian, with SNB-75 CNS, with LOX IMVI melanoma, in the experiment with SF-268 CNS and in the experiment with SR leukemia was more than 100 µM each time.

As for `O=C(c1ccccc1)C1C(c2ccccc2)N1S(=O)(=O)c1ccccc1` (configuration not stated), the TGI with OVCAR-5 ovarian, with OVCAR-4 ovarian, in the experiment on HCC-2998 colon, in the experiment on HT29 colon, in the experiment on K-562 leukemia and in the experiment on HOP-62 NSCLC was more than 100 µM in each case. The TGI in the experiment with IGROV1 ovarian, in the experiment on SNB-75 CNS, with LOX IMVI melanoma and with SF-268 CNS was more than 100 µM in each case.

Take `Cc1ccc2c(ccc(/C=C\c3cc(C)c4cccnc4c3O)[n+]2C)c1`: the TGI in the experiment on OVCAR-5 ovarian is more than 100 µM; in the experiment on OVCAR-4 ovarian, 39 µM; with HCC-2998 colon, 11.6 µM; in the experiment on K-562 leukemia, more than 100 µM; in the experiment with HOP-62 NSCLC, 27.6 µM; with IGROV1 ovarian it was more than 100 µM. The values for the TGI with LOX IMVI melanoma, with SF-268 CNS and with SR leukemia were 56.2 µM, 47.6 µM and 25.4 µM, respectively.

In the case of `OCc1cc2ccncc2c2c1[nH]c1ccccc12`, the TGI was 26.7 µM in the experiment on OVCAR-5 ovarian; 26.8 µM in the experiment on OVCAR-4 ovarian; 22.1 µM with HCC-2998 colon; 22.8 µM in the experiment on HT29 colon; more than 100 µM in the experiment with K-562 leukemia; 17.1 µM in the experiment on IGROV1 ovarian. Also, the TGI was 19.5 µM in the experiment with SNB-75 CNS, 16.3 µM with LOX IMVI melanoma, 34.2 µM in the experiment with SF-268 CNS and 20 µM with SR leukemia.

In the case of `CC1(C)N=C(N)N=C(N)N1c1cccc(C(=O)Nc2ccc(S(=O)(=O)F)cc2)c1`, the TGI with OVCAR-5 ovarian, in the experiment on OVCAR-4 ovarian, in the experiment on HT29 colon, in the experiment with K-562 leukemia, in the experiment with HOP-62 NSCLC and in the experiment on IGROV1 ovarian was more than 100 µM in each case. The TGI with SNB-75 CNS, in the experiment on LOX IMVI melanoma and in the experiment with SF-268 CNS was more than 100 µM throughout.

As for `CCN(CC)c1ccc2nc3ccc(N=Nc4c(O)ccc5ccccc45)cc3[n+](-c3ccccc3)c2c1`, the TGI with OVCAR-5 ovarian, in the experiment on OVCAR-4 ovarian, with HT29 colon, in the experiment with K-562 leukemia, in the experiment on HOP-62 NSCLC and with IGROV1 ovarian was more than 100 µM in each case. For the same compound, the TGI in the experiment on SNB-75 CNS, in the experiment on SF-268 CNS and in the experiment on SR leukemia was more than 100 µM throughout.

`C[N+](C)(C)c1cc2c(nn1)Nc1ccccc1S2`: the TGI in the experiment with OVCAR-5 ovarian was 58.2 µM; in the experiment on OVCAR-4 ovarian it was 70.1 µM; in the experiment on HCC-2998 colon it was 71.5 µM; with HT29 colon, 42.5 µM; with K-562 leukemia, 68.9 µM; in the experiment on HOP-62 NSCLC it was 69.8 µM. Further, the TGI with IGROV1 ovarian is 81.2 µM; with LOX IMVI melanoma, 43.8 µM; with SF-268 CNS, more than 100 µM.

Regarding `CN=C(N)c1ccc(N=C(N)c2ccc(C(N)=Nc3ccc(C(N)=NC)cc3)cc2)cc1`, the TGI in the experiment on OVCAR-5 ovarian, in the experiment on OVCAR-4 ovarian, in the experiment with HT29 colon, in the experiment with K-562 leukemia, in the experiment with HOP-62 NSCLC and with IGROV1 ovarian was more than 100 µM throughout. Further, the TGI with SNB-75 CNS, with LOX IMVI melanoma and in the experiment on SF-268 CNS was more than 100 µM throughout.

Consider `Clc1ccc(C[P+]2(c3ccccc3)CCCCC2)cc1`, for which the TGI in the experiment with OVCAR-5 ovarian, with HCC-2998 colon, in the experiment on HT29 colon, with K-562 leukemia, in the experiment with HOP-62 NSCLC and in the experiment on IGROV1 ovarian was more than 100 µM in each case. Also, the TGI in the experiment with SNB-75 CNS, in the experiment with LOX IMVI melanoma and in the experiment with SR leukemia was more than 100 µM each time.

On to `C[C@]12CC[C@@H]3c4ccc(O)cc4CC[C@H]3[C@@H]1CC[C@@H]2OC(=O)CCc1ccccc1`, for which the TGI in the experiment with OVCAR-5 ovarian is more than 100 µM; with OVCAR-4 ovarian it was 39.1 µM; with HCC-2998 colon, 36.6 µM; in the experiment with HT29 colon, 40.7 µM; in the experiment with K-562 leukemia, 33.9 µM; with HOP-62 NSCLC it was 55.9 µM. Moreover, the TGI stood at 43.9 µM with IGROV1 ovarian, 33.8 µM in the experiment on SNB-75 CNS, 39.4 µM with LOX IMVI melanoma and 35.8 µM in the experiment with SF-268 CNS.

With `N#C/C(=C\c1ccc(Br)cc1)n1nnc2cc(Cl)c(Cl)cc21`, the GI50 is 2.18 µM in the experiment on HT29 colon; 2.31 µM in the experiment with K-562 leukemia; 3.26 µM in the experiment with HOP-62 NSCLC; 2 µM in the experiment on IGROV1 ovarian; 1.73 µM with SNB-75 CNS; 1.71 µM in the experiment on LOX IMVI melanoma. The GI50 was 3.84 µM in the experiment on SF-268 CNS and 1.36 µM with SR leukemia. Further, the TGI is 5.18 µM in the experiment on HT29 colon; more than 100 µM in the experiment with K-562 leukemia; more than 100 µM in the experiment on HOP-62 NSCLC; 4.53 µM in the experiment with IGROV1 ovarian; 8.26 µM in the experiment with SNB-75 CNS; 3.3 µM with LOX IMVI melanoma. The TGI in the experiment on SF-268 CNS and in the experiment on SR leukemia was more than 100 µM throughout.
